Legend:
Format in all cases: in vivo
[1] = test system: ragweed (common ragweed, Ambrosia elatior); assay: Test A postemergence, visual plant response rating; details: for Ragweed plant response rating (0 to 100 scale): 500 g ai/ha, postemergence, 0 is no effect, 100 is complete control; for Ragweed plant response rating: Postemergence, 125 g ai/ha, 0 to 100 scale (0 no effect, 100 complete control)
Procedure, shortened: (§1)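 Formulated in a non-phytotoxic solvent mixture including surfactant, each test chemical was sprayed onto the soil surface after sowing, or onto seedlings 2 to 10 cm high. Roughly 10 days later, plants were compared with untreated controls and rated for injury from 0 (no effect) to 100 (complete control).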

[2] = test system: galium (catchweed bedstraw, Galium aparine); assay: Test A postemergence, visual plant response rating; details: for Galium plant response rating (0 to 100 scale): 500 g ai/ha, postemergence, 0 is no effect, 100 is complete control; for Galium plant response rating: Postemergence, 125 g ai/ha, 0 to 100 scale (0 no effect, 100 complete control)
Procedure, shortened: as §1

[3] = test system: wheat (Triticum aestivum); assay: Test A postemergence, visual plant response rating; details: for Wheat plant response rating: 0 to 100 scale (0 no effect, 100 complete control)
Procedure, shortened: as §1

[4] = test system: kochia (Kochia scoparia); assay: Test A postemergence, visual plant response rating; details: for Kochia plant response rating (0 to 100 scale): 500 g ai/ha, postemergence, 0 is no effect, 100 is complete control; for Kochia plant response rating: Postemergence, 125 g ai/ha, 0 to 100 scale (0 no effect, 100 complete control)
Procedure, shortened: as §1

[5] = test system: Italian ryegrass (Lolium multiflorum); assay: Test A postemergence, visual plant response rating; details: for Ryegrass, Italian plant response rating: 125 g ai/ha, 0 to 100 scale (0 no effect, 100 complete control)
Procedure, shortened: as §1

[6] = test system: pigweed (Amaranthus retroflexus); assay: Test A postemergence, visual plant response rating; details: for Pigweed plant response rating (0 to 100 scale): 500 g ai/ha, postemergence, 0 is no effect, 100 is complete control; for Pigweed plant response rating: Postemergence, 125 g ai/ha, 0 to 100 scale (0 no effect, 100 complete control)
Procedure, shortened: as §1

[7] = test system: barnyardgrass (Echinochloa crus-galli); assay: Test A postemergence, visual plant response rating; details: for Barnyardgrass plant response rating (0 to 100 scale): 500 g ai/ha, postemergence, 0 is no effect, 100 is complete control; for Barnyardgrass plant response rating: Postemergence, 125 g ai/ha, 0 to 100 scale (0 no effect, 100 complete control)
Procedure, shortened: as §1

[8] = test system: blackgrass (Alopecurus myosuroides); assay: Test A postemergence, visual plant response rating; details: for Blackgrass plant response rating (0 to 100 scale): 500 g ai/ha, postemergence, 0 is no effect, 100 is complete control; for Blackgrass plant response rating: Postemergence, 125 g ai/ha, 0 to 100 scale (0 no effect, 100 complete control)
Procedure, shortened: as §1

[9] = test system: foxtail, green (green foxtail, Setaria viridis); assay: Test A postemergence, visual plant response rating; details: for Foxtail, Green plant response rating (0 to 100 scale): 500 g ai/ha, postemergence, 0 is no effect, 100 is complete control; for Foxtail, Green plant response rating: Postemergence, 125 g ai/ha, 0 to 100 scale (0 no effect, 100 complete control)
Procedure, shortened: as §1

[10] = test system: corn (Zea mays); assay: Test A postemergence, visual plant response rating; details: for Corn plant response rating (0 to 100 scale): 500 g ai/ha, postemergence, 0 is no effect, 100 is complete control; for Corn plant response rating: Postemergence, 125 g ai/ha, 0 to 100 scale (0 no effect, 100 complete control)
Procedure, shortened: as §1

[11] = test system: ducksalad (Heteranhera limosa); assay: Test B flooded paddy test, visual plant response rating; details: 250 g ai/ha, Flood, applied to paddy water, 2-leaf stage, evaluated after 13 to 15 days
Procedure, shortened: (§2)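 Visual scores compare treated plants with controls after 13 to 15 days of greenhouse growth. Treatment was made into paddy water standing 3 cm above the soil, with plants at the 2-leaf stage and flooding maintained throughout.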

[12] = test system: barnyardgrass (Echinochloa crus-galli); assay: as above; details: 250 g ai/ha, Flood, applied to paddy water, 2-leaf stage, evaluated after 13 to 15 days
Procedure, shortened: as §2

[13] = test system: rice (Oryza sativa); assay: as above; details: 250 g ai/ha, Flood, applied to paddy water, 2-leaf stage, evaluated after 13 to 15 days
Procedure, shortened: as §2

[14] = test system: sedge, umbrella (small-flower umbrella sedge, Cyperus difformis); assay: as above; details: 250 g ai/ha, Flood, applied to paddy water, 2-leaf stage, evaluated after 13 to 15 days
Procedure, shortened: as §2

[15] = test system: ragweed (common ragweed, Ambrosia elatior); assay: Test A preemergence, visual plant response rating; details: for Ragweed plant response rating (0 to 100 scale): approx. 10 days
Procedure, shortened: as §1

[16] = test system: kochia (Kochia scoparia); assay: Test A preemergence, visual plant response rating; details: for Kochia plant response rating (0 to 100 scale): approx. 10 days
Procedure, shortened: as §1

[17] = test system: Italian ryegrass (Lolium multiflorum); assay: Test A preemergence, visual plant response rating; details: for Ryegrass, Italian plant response rating (0 to 100 scale): approx. 10 days
Procedure, shortened: as §1

[18] = test system: pigweed (Amaranthus retroflexus); assay: Test A preemergence, visual plant response rating; details: for Pigweed plant response rating (0 to 100 scale): approx. 10 days
Procedure, shortened: as §1

[19] = test system: barnyardgrass (Echinochloa crus-galli); assay: Test A preemergence, visual plant response rating; details: for Barnyardgrass plant response rating (0 to 100 scale): approx. 10 days
Procedure, shortened: as §1

[20] = test system: foxtail, green (green foxtail, Setaria viridis); assay: Test A preemergence, visual plant response rating; details: for Foxtail, Green plant response rating (0 to 100 scale): approx. 10 days
Procedure, shortened: as §1

[21] = 500 g ai/ha, postemergence, 0 is no effect, 100 is complete control
[22] = 125 g ai/ha, preemergence, 0 to 100 scale, 0 no effect, 100 complete control

SMILES: CO/N=C(\c1cccc(S(C)(=O)=O)c1)c1c(O)c(C)nn(C)c1=O [Compound 148]
- Ragweed plant response rating (0 to 100 scale) [1]: 0
- Ragweed plant response rating [1]: 0
- Galium plant response rating (0 to 100 scale) [2]: 0
- Galium plant response rating [2]: 0
- Wheat plant response rating ([3]; Postemergence, 500 g ai/ha): 0
- Wheat plant response rating (0 to 100 scale) ([3]; Postemergence, approx. 10 days): 0
- Kochia plant response rating (0 to 100 scale) [4]: 0
- Kochia plant response rating [4]: 0
- Ryegrass, Italian plant response rating (0 to 100 scale) [5, 21]: 0
- Ryegrass, Italian plant response rating (0 to 100 scale) ([5]; Postemergence, rate not given, approx. 10 days): 0
- Pigweed plant response rating (0 to 100 scale) [6]: 0
- Pigweed plant response rating [6]: 0
- Barnyardgrass plant response rating (0 to 100 scale) [7]: 0
- Barnyardgrass plant response rating [7]: 0
- Blackgrass plant response rating (0 to 100 scale) [8]: 0
- Blackgrass plant response rating [8]: 0
- Foxtail, Green plant response rating (0 to 100 scale) [9]: 0
- Foxtail, Green plant response rating [9]: 0
- Corn plant response rating (0 to 100 scale) [10]: 0
- Corn plant response rating [10]: 0
- Plant response rating, Ducksalad (0 to 100 scale, 0 is no effect, 100 is complete control) [11]: 0
- Plant response rating, Barnyardgrass (0 to 100 scale, 0 is no effect, 100 is complete control) [12]: 0
- Plant response rating, Rice (0 to 100 scale, 0 is no effect, 100 is complete control) [13]: 0
- Plant response rating, Sedge, Umbrella (0 to 100 scale, 0 is no effect, 100 is complete control) [14]: 0
- Ragweed plant response rating [15, 22]: 0
- Ragweed plant response rating (0 to 100 scale) ([15]; 500 g ai/ha Preemergence): 0
- Kochia plant response rating [16, 22]: 0
- Kochia plant response rating (0 to 100 scale) ([16]; 500 g ai/ha Preemergence): 0
- Ryegrass, Italian plant response rating [17, 22]: 0
- Ryegrass, Italian plant response rating (0 to 100 scale) ([17]; 500 g ai/ha Preemergence): 0
- Pigweed plant response rating [18, 22]: 0
- Pigweed plant response rating (0 to 100 scale) ([18]; 500 g ai/ha Preemergence): 0
- Barnyardgrass plant response rating [19, 22]: 0
- Barnyardgrass plant response rating (0 to 100 scale) ([19]; 500 g ai/ha Preemergence): 0
- Foxtail, Green plant response rating [20, 22]: 0
- Foxtail, Green plant response rating (0 to 100 scale) ([20]; 500 g ai/ha Preemergence): 0

SMILES: CCO/N=C(/c1ccccc1C)c1c(O)c(C)nn(C)c1=O [Compound 15]
- Ragweed plant response rating (0 to 100 scale) [1]: 80
- Ragweed plant response rating [1]: 60
- Galium plant response rating (0 to 100 scale) [2]: 90
- Galium plant response rating [2]: 80
- Wheat plant response rating (0 to 100 scale) [3, 21]: 0
- Wheat plant response rating ([3]; Postemergence, 125 g ai/ha): 0
- Kochia plant response rating (0 to 100 scale) [4]: 20
- Kochia plant response rating [4]: 0
- Ryegrass, Italian plant response rating (0 to 100 scale) [5, 21]: 80
- Ryegrass, Italian plant response rating ([5]; Postemergence): 60
- Pigweed plant response rating (0 to 100 scale) [6]: 30
- Pigweed plant response rating [6]: 20
- Barnyardgrass plant response rating (0 to 100 scale) [7]: 30
- Barnyardgrass plant response rating [7]: 10
- Blackgrass plant response rating (0 to 100 scale) [8]: 60
- Blackgrass plant response rating [8]: 30
- Foxtail, Green plant response rating (0 to 100 scale) [9]: 30
- Foxtail, Green plant response rating [9]: 10
- Corn plant response rating (0 to 100 scale) [10]: 10
- Corn plant response rating [10]: 0
- Plant response rating, Ducksalad (0 to 100 scale, 0 is no effect, 100 is complete control) [11]: 0
- Plant response rating, Barnyardgrass (0 to 100 scale, 0 is no effect, 100 is complete control) [12]: 0
- Plant response rating, Rice (0 to 100 scale, 0 is no effect, 100 is complete control) [13]: 0
- Plant response rating, Sedge, Umbrella (0 to 100 scale, 0 is no effect, 100 is complete control) [14]: 0
- Ragweed plant response rating (0 to 100 scale) ([15]; 125 g ai/ha Preemergence): 30
- Ragweed plant response rating (0 to 100 scale) ([15]; 500 g ai/ha Preemergence): 90
- Kochia plant response rating (0 to 100 scale) ([16]; 125 g ai/ha Preemergence): 0
- Kochia plant response rating (0 to 100 scale) ([16]; 500 g ai/ha Preemergence): 10
- Ryegrass, Italian plant response rating (0 to 100 scale) ([17]; 125 g ai/ha Preemergence): 70
- Ryegrass, Italian plant response rating (0 to 100 scale) ([17]; 500 g ai/ha Preemergence): 80
- Pigweed plant response rating (0 to 100 scale) ([18]; 125 g ai/ha Preemergence): 60
- Pigweed plant response rating (0 to 100 scale) ([18]; 500 g ai/ha Preemergence): 70
- Barnyardgrass plant response rating (0 to 100 scale) ([19]; 125 g ai/ha Preemergence): 30
- Barnyardgrass plant response rating (0 to 100 scale) ([19]; 500 g ai/ha Preemergence): 80
- Foxtail, Green plant response rating (0 to 100 scale) ([20]; 125 g ai/ha Preemergence): 0
- Foxtail, Green plant response rating (0 to 100 scale) ([20]; 500 g ai/ha Preemergence): 60

SMILES: CCO/N=C(\c1cccc(C)c1C)c1c(O)c(C)nn(C)c1=O [Compound 25]
- Ragweed plant response rating (0 to 100 scale) [1]: 40
- Ragweed plant response rating [1]: 20
- Galium plant response rating (0 to 100 scale) [2]: 20
- Galium plant response rating [2]: 20
- Wheat plant response rating (0 to 100 scale) [3, 21]: 0
- Wheat plant response rating ([3]; Postemergence, 125 g ai/ha): 0
- Kochia plant response rating (0 to 100 scale) [4]: 10
- Kochia plant response rating [4]: 0
- Ryegrass, Italian plant response rating (0 to 100 scale) [5, 21]: 40
- Ryegrass, Italian plant response rating ([5]; Postemergence): 10
- Pigweed plant response rating (0 to 100 scale) [6]: 50
- Pigweed plant response rating [6]: 40
- Barnyardgrass plant response rating (0 to 100 scale) [7]: 30
- Barnyardgrass plant response rating [7]: 0
- Blackgrass plant response rating (0 to 100 scale) [8]: 40
- Blackgrass plant response rating [8]: 0
- Foxtail, Green plant response rating (0 to 100 scale) [9]: 10
- Foxtail, Green plant response rating [9]: 0
- Corn plant response rating (0 to 100 scale) [10]: 0
- Corn plant response rating [10]: 0
- Plant response rating, Ducksalad (0 to 100 scale, 0 is no effect, 100 is complete control) [11]: 0
- Plant response rating, Barnyardgrass (0 to 100 scale, 0 is no effect, 100 is complete control) [12]: 0
- Plant response rating, Rice (0 to 100 scale, 0 is no effect, 100 is complete control) [13]: 0
- Plant response rating, Sedge, Umbrella (0 to 100 scale, 0 is no effect, 100 is complete control) [14]: 0
- Ragweed plant response rating (0 to 100 scale) ([15]; 125 g ai/ha Preemergence): 30
- Ragweed plant response rating (0 to 100 scale) ([15]; 500 g ai/ha Preemergence): 90
- Kochia plant response rating (0 to 100 scale) ([16]; 125 g ai/ha Preemergence): 0
- Kochia plant response rating (0 to 100 scale) ([16]; 500 g ai/ha Preemergence): 0
- Ryegrass, Italian plant response rating (0 to 100 scale) ([17]; 125 g ai/ha Preemergence): 10
- Ryegrass, Italian plant response rating (0 to 100 scale) ([17]; 500 g ai/ha Preemergence): 30
- Pigweed plant response rating (0 to 100 scale) ([18]; 125 g ai/ha Preemergence): 90
- Pigweed plant response rating (0 to 100 scale) ([18]; 500 g ai/ha Preemergence): 40
- Barnyardgrass plant response rating (0 to 100 scale) ([19]; 125 g ai/ha Preemergence): 0
- Barnyardgrass plant response rating (0 to 100 scale) ([19]; 500 g ai/ha Preemergence): 0
- Foxtail, Green plant response rating (0 to 100 scale) ([20]; 125 g ai/ha Preemergence): 0
- Foxtail, Green plant response rating (0 to 100 scale) ([20]; 500 g ai/ha Preemergence): 60
